From patent publication US5866575A, “Method of inhibiting HIV integrase” (Lundblad; Leif J. I., priority 1994, dated 1999)

What was measured:
[1] = General toxicity after repeated administration, rats; settings: rat, in vivo, iv, for 28 days, read-out: NOEL (no observable effect level) i.v.
Description: (§1) General toxicity after repeated administration NOEL (no observable effect level)

[2] = General toxicity after repeated administration, rabbits; settings: rabbit, in vivo, topical or ocular, dermal, for 28 days, repeated administration (except for local toxicity), read-out: NOEL (no observable effect level) dermal
Description: as §1

[3] = system: rats; test: Acute toxicity; format: in vivo

Cc1cc2nc3c4ccccc4n(CCN(C)C)c3nc2cc1C [compound II, 2,3-dimethyl-6-(N,N-dimethylaminoethyl)-6H-indoloquinoxaline]
NOAEL at 672 h [1]: 12.5 mg/kg
NOAEL at 672 h [2]: 200 mg/kg
LD i.v. ([3]; i.v.): > 100 mg/kg
LD p.o. ([3]; p.o.): > 800 mg/kg
